Assay results reported in PubChem BioAssay AID2060910 (Molecular Pharmacology Branch, DTP, NCI, 2025).

Tested on: 242566-281-R-J2-PDC complex spheroid viability
Assay: Anticancer human tumor 242566-281-R-J2-PDC patient-derived pancreatic carcinoma cell line growth inhibition [RAS]
Settings: for IC50: curve of first compound; for viability, T/C: stronger effect = lower value
Source text: RAS pathway inhibitors in Combinations in Complex Spheroids
A high-throughput screen of multi-cell type tumor spheroids was designed to identify active combinations of RAS pathway inhibitors and targeted small molecules. Complex spheroids include a stromal component modeled by human endothelial cells (HUVEC) and fibroblasts modeled by human mesenchymal stem cells (MSCs). The concentration ranges selected for each drug and investigational agent were based upon clinically achievable concentrations if the clinical Cmax of the agent was known.
Compounds. The drugs and investigational agents: abemaciclib (NSC768073), cobimetinib (NSC768068), divarasib (GDC6063, NSC841802), docetaxel (NSC628503), GDC-1971 (RLY-1971, NSC841576), gemcitabine (NSC613327), inavolisib (NSC800729), ipatasertib (NSC767898), KB-0742 (NSC834161), MRTX-1133 (NSC836407), osimertinib (NSC779217), RMC-4630 (NSC839698), RMC-6236 (NSC851965), RMC-6291 (NSC852671), Ro-3306 (NSC812927), sapanisertib (NSC764658), SN-38 (NSC673596), staurosporine (NSC755774), SY5609 (NSC837396), and tovorafenib (DAY101, NSC766906), were obtained from the National Cancer Institute (NCI) Developmental Therapeutics Program Chemical Repository. The FDA-approved anticancer drug set is available from the NCI Developmental Therapeutics Program. […] The stock solutions were prepared in dimethyl sulfoxide (DMSO, Sigma-Aldrich, St. Louis, MO, cat. D2650) at 800-fold the tested concentration and stored at -70 degrees C prior to their use. All drugs and investigational agents were tested over a range starting from a high concentration at or near the clinical Cmax and decreasing in half-log increments. If the clinical Cmax for an agent had not been determined, the highest concentration tested was 10 microM.
Cell Culture. All cells were maintained in an incubator at 37 degrees C and 5% CO2 with 95% humidity. The PDC lines were cultured according to standard operating procedures established by the NCI PDMR. All PDCs were thawed and cultured in Matrigel-coated flasks prepared with a working solution of 1X Ham's F-12 nutrient mix, without supplementation (Invitrogen, Waltham, MA, cat. 11765054), 100 U/mL penicillin-streptomycin (Invitrogen, cat. 15140122), and 2.5% Matrigel (Corning Inc., Corning, NY, cat. 354248) for the first three passages. The 362531-283-R-J2-PDC and 782815-120-R-J1-PDC lines were cultured in 6C/Colon 1B media, which includes advanced DMEM/F-12 (Thermo Fisher Scientific, cat. 12634028), 10 mM HEPES (Thermo Fisher Scientific, cat. 15630080), 1X GlutaMAX supplement (Thermo Fisher Scientific, cat. 35050061), 0.1 mg/mL primocin (InvivoGen, San Diego, CA, cat. ant-pm-2), 10% defined fetal bovine serum, heat inactivated (HyClone Laboratories Inc., Logan, UT, cat. SH30070.03HI), 50% L-WRN conditioned media (ATCC, cat. CRL-3276), 1.25 mM N-Acetyl-L-cysteine (Sigma-Aldrich, cat. A9165), 10 mM nicotinamide (Sigma-Aldrich, cat. N0636), 1X B-27 supplement (Thermo Fisher Scientific, cat. 17504044), 1X N-2 supplement (Thermo Fisher Scientific, cat. 17502048), 50 ng/mL human EGF (Thermo Fisher Scientific, cat. PHG0311), and 10 microM Y-27632 dihydrochloride (Tocris Bioscience, cat. 1254). The K12877-001-R-J1-PDC line was cultured in 6I media, which includes all 6C/Colon 1B media plus 10 ng/mL human FGF-10 (PeproTech, cat. 100-26), 1 ng/mL human FGF-2 (PeproTech, cat. 100-18B), 1 µM prostaglandin E2 (Tocris Bioscience, cat. 2296), […] hydrocortisone (Sigma-Aldrich, cat. H4001), and […] bovine insulin (Sigma-Aldrich, cat. I6634). The K86415-001-R-J1-PDC line was cultured in 6D media, which includes all 6C/Colon 1B media components minus the L-WRN conditioned media. The 485176-168-R4-J1-PDC was cultured in PANC media, which includes all 6C/Colon 1B media plus 100 ng/mL human FGF-10 (PeproTech, cat. 100-26), 500 nM SB-431542 (Selleckchem, cat. S1067), and 10 nM gastrin (Tocris Bioscience, cat. 3006). […]
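Also: spheroids exposed to compound for 7 days before readout.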
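For viability, T/C in this document: 100% = DMSO vehicle control wells.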

`CC1(C)CCC(Nc2ncc(C(F)(F)F)c(-c3c[nH]c4c(P(C)(C)=O)c(C#N)ccc34)n2)CN1` (centres undefined) + CCn1c(-c2cc(N3CCN(C)CC3)cnc2C(C)OC)c2c3cc(ccc31)-c1csc(n1)CC(NC(=O)C1CC1C)C(=O)N1CCCC(N1)C(=O)OCC(C)(C)C2 gave an IC50 (second compound 0.000949 µM) greater than 300 nM, an IC50 (second compound 0.003 µM) greater than 300 nM and an IC50 (second compound 0.00949 µM) of less than 0.949 nM. The IC50 (second compound 0.03 µM) was less than 0.949 nM, the IC50 (second compound 0.0949 µM) was less than 0.949 nM and the IC50 (second compound 0.3 µM) was less than 0.949 nM. The viability, T/C (second compound 0.000949 µM, first compound 0.000949 µM) was 101%, the viability, T/C (second compound 0.000949 µM, first compound 0.003 µM) was 98% and the viability, T/C (second compound 0.000949 µM, first compound 0.00949 µM) was 73.5%. For the same molecule, the viability, T/C (second compound 0.000949 µM, first compound 0.03 µM) was 88%, the viability, T/C (second compound 0.000949 µM, first compound 0.0949 µM) was 85.3% and the viability, T/C (second compound 0.000949 µM, first compound 0.3 µM) was 61.3%. It also gave a viability, T/C (second compound 0.003 µM, first compound 0.000949 µM) of 81.6%, a viability, T/C (second compound 0.003 µM, first compound 0.003 µM) of 69.6% and a viability, T/C (second compound 0.003 µM, first compound 0.00949 µM) of 63.8%. The viability, T/C (second compound 0.003 µM, first compound 0.03 µM) was 67.8%, the viability, T/C (second compound 0.003 µM, first compound 0.0949 µM) was 68.3% and the viability, T/C (second compound 0.003 µM, first compound 0.3 µM) was 48.8%. It also gave a viability, T/C (second compound 0.00949 µM, first compound 0.000949 µM) of 49.6%, a viability, T/C (second compound 0.00949 µM, first compound 0.003 µM) of 39.9% and a viability, T/C (second compound 0.00949 µM, first compound 0.00949 µM) of 45.5%. It also gave a viability, T/C (second compound 0.00949 µM, first compound 0.03 µM) of 39.3%, a viability, T/C (second compound 0.00949 µM, first compound 0.0949 µM) of 35.5% and a viability, T/C (second compound 0.00949 µM, first compound 0.3 µM) of 36%. It also gave a viability, T/C (second compound 0.03 µM, first compound 0.000949 µM) of 30.7%, a viability, T/C (second compound 0.03 µM, first compound 0.003 µM) of 32.9% and a viability, T/C (second compound 0.03 µM, first compound 0.00949 µM) of 30.2%. It also gave a viability, T/C (second compound 0.03 µM, first compound 0.03 µM) of 27.8%, a viability, T/C (second compound 0.03 µM, first compound 0.0949 µM) of 19.6% and a viability, T/C (second compound 0.03 µM, first compound 0.3 µM) of 27.2%. It also gave a viability, T/C (second compound 0.0949 µM, first compound 0.000949 µM) of 22.5%, a viability, T/C (second compound 0.0949 µM, first compound 0.003 µM) of 24.8% and a viability, T/C (second compound 0.0949 µM, first compound 0.00949 µM) of 21.6%. For the same molecule, the viability, T/C (second compound 0.0949 µM, first compound 0.03 µM) was 21.6%, the viability, T/C (second compound 0.0949 µM, first compound 0.0949 µM) was 19.4% and the viability, T/C (second compound 0.0949 µM, first compound 0.3 µM) was 23.6%. It also gave a viability, T/C (second compound 0.3 µM, first compound 0.000949 µM) of 21.6%, a viability, T/C (second compound 0.3 µM, first compound 0.003 µM) of 19.4% and a viability, T/C (second compound 0.3 µM, first compound 0.00949 µM) of 21.3%. It also gave a viability, T/C (second compound 0.3 µM, first compound 0.03 µM) of 17.5%, a viability, T/C (second compound 0.3 µM, first compound 0.0949 µM) of 18.6% and a viability, T/C (second compound 0.3 µM, first compound 0.3 µM) of 18.3%.
`Nc1ccn(C2OC(CO)C(O)C2(F)F)c(=O)n1` (centres undefined) + C=CC(=O)N1CCN(c2nc(OCC3CCCN3C)nc3c(F)c(-c4nc(N)cc(C)c4C(F)(F)F)c(Cl)cc23)C(C)C1 showed an IC50 (second compound 0.00316 µM) of 108 nM, an IC50 (second compound 0.01 µM) of 112 nM and an IC50 (second compound 0.0316 µM) of 103 nM. For the same molecule, the IC50 (second compound 0.1 µM) was 96.9 nM, the IC50 (second compound 0.316 µM) was 57.3 nM and the IC50 (second compound 1 µM) was 97.2 nM. It also gave a viability, T/C (second compound 0.00316 µM, first compound 0.00316 µM) of 101%, a viability, T/C (second compound 0.00316 µM, first compound 0.01 µM) of 118% and a viability, T/C (second compound 0.00316 µM, first compound 0.0316 µM) of 92.6%. The viability, T/C (second compound 0.00316 µM, first compound 0.1 µM) was 52.1%, the viability, T/C (second compound 0.00316 µM, first compound 0.316 µM) was 25.9% and the viability, T/C (second compound 0.00316 µM, first compound 1 µM) was 18.4%. The viability, T/C (second compound 0.01 µM, first compound 0.00316 µM) was 123%, the viability, T/C (second compound 0.01 µM, first compound 0.01 µM) was 128% and the viability, T/C (second compound 0.01 µM, first compound 0.0316 µM) was 93.6%. The viability, T/C (second compound 0.01 µM, first compound 0.1 µM) was 53.8%, the viability, T/C (second compound 0.01 µM, first compound 0.316 µM) was 26% and the viability, T/C (second compound 0.01 µM, first compound 1 µM) was 16.2%. For the same molecule, the viability, T/C (second compound 0.0316 µM, first compound 0.00316 µM) was 103%, the viability, T/C (second compound 0.0316 µM, first compound 0.01 µM) was 147% and the viability, T/C (second compound 0.0316 µM, first compound 0.0316 µM) was 74.3%. It also gave a viability, T/C (second compound 0.0316 µM, first compound 0.1 µM) of 60%, a viability, T/C (second compound 0.0316 µM, first compound 0.316 µM) of 21.6% and a viability, T/C (second compound 0.0316 µM, first compound 1 µM) of 15.8%. It also gave a viability, T/C (second compound 0.1 µM, first compound 0.00316 µM) of 134%, a viability, T/C (second compound 0.1 µM, first compound 0.01 µM) of 124% and a viability, T/C (second compound 0.1 µM, first compound 0.0316 µM) of 91.3%. For the same molecule, the viability, T/C (second compound 0.1 µM, first compound 0.1 µM) was 50.8%, the viability, T/C (second compound 0.1 µM, first compound 0.316 µM) was 21.5% and the viability, T/C (second compound 0.1 µM, first compound 1 µM) was 19.1%. The viability, T/C (second compound 0.316 µM, first compound 0.00316 µM) was 115%, the viability, T/C (second compound 0.316 µM, first compound 0.01 µM) was 160% and the viability, T/C (second compound 0.316 µM, first compound 0.0316 µM) was 75.5%. The viability, T/C (second compound 0.316 µM, first compound 0.1 µM) was 41.9%, the viability, T/C (second compound 0.316 µM, first compound 0.316 µM) was 20.6% and the viability, T/C (second compound 0.316 µM, first compound 1 µM) was 15.7%. It also gave a viability, T/C (second compound 1 µM, first compound 0.00316 µM) of 115%, a viability, T/C (second compound 1 µM, first compound 0.01 µM) of 102% and a viability, T/C (second compound 1 µM, first compound 0.0316 µM) of 83.6%. It also gave a viability, T/C (second compound 1 µM, first compound 0.1 µM) of 50.9%, a viability, T/C (second compound 1 µM, first compound 0.316 µM) of 22% and a viability, T/C (second compound 1 µM, first compound 1 µM) of 18.9%.
